The values below come from paper PMC6479402, “Anti-Herpetic, Anti-Dengue and Antineoplastic Activities of Simple and Heterocycle-Fused Derivatives of Terpenyl-1,4-Naphthoquinone and 1,4-Anthraquinone” (Molecules, 2019).

Read-outs that look alike come from different tables or passages of the source.

Assay [1] concerns Human Herpesvirus type 1 (HHV-1). The assay is described as follows: End-point titration technique (EPTT), anti-herpetic screening on infected Vero cells. The settings on record: for minimal effective concentration: Human alphaherpesvirus 1, 1 TCID50, 48 h, read-out: 1 TCID50: non-toxic concentration that showed viral reduction factor, HHV-1; for Rf (reduction factor of the viral titer), HHV-1: 1 TCID50, 48 h. Type of assay: cell-based. The procedure:
(§1) The in vitro antiviral evaluation of the 27 substances against Human Herpesvirus type 1 (HHV-1) and 2 (HHV-2) was made on infected Vero cells, using the end-point titration technique (EPTT).
(§2) The antiviral activity of molecules against 1 and 10 Cell Culture Infectious Dose 50% (10TCID50) of HHV-1 and HHV-2, respectively, was determined using end-point titration technique (EPTT). Vero cells grown in 96-well plates at a density of 2.0 × 10^4 cells/well were incubated at 37 °C in 5% CO2 atmosphere until constitute 80% of cell monolayer. Then, viral suspensions of HHV-1 or HHV-2 with concentrations of 6.25 µg/mL to 50 µg/mL of compounds were performed in DMEM supplemented with 2% FBS containing 1% and 0.5% carboxymethylcellulose (CMC) for HHV-1 and HHV-2, respectively. Mixture was incubated during 15 minutes at room temperature and was added to the cell monolayer. After 48 h of incubation at 37 °C (5% CO2), the cytopathic effect was examined, the microplates were fixed with 3.5% formaldehyde and stained with 0.2% crystal violet. Two independent experiments by quadruplicate for each viral serotype and each were carried out. Positive controls, such as dextran sulfate (DS) and acyclovir (A) for early stages and late stages of infection, respectively, were included.

For the next assay, the system named is Jurkat. The assay is described as follows: MTT cytotoxicity assay. Type of assay: cell-based. The settings on record: Homo sapiens, Jurkat ATCC TIB-152, 48 h, read-out: IC50 ± SD, Jurkat. The procedure:
(§3) Then, each diluted molecule was added to the cells and incubated for further 48 h at 37 °C, 5% CO2. […] The DMSO was then added to dissolve the formed formazan crystals and absorbance was determined spectrophotometrically at 570 nm. […] IC50 values were expressed as the mean ± standard deviation (M ± SD) of two independent experiments done in quadruplicate.

Another assay has as its system HeLa. The assay is described as follows: MTT cytotoxicity assay. The format is cell-based. The note with it: Homo sapiens, HeLa ATCC CRL-1958, 48 h, read-out: IC50 ± SD, HeLa. The procedure:
as §3

A further assay deals with Vero. Put plainly: MTT cytotoxicity assay, non-tumor cells. Type of assay: cell-based, Cercopithecus aethiops. The note with it: for IC50: Chlorocebus sabaeus. The procedure: The in vitro cytotoxicity evaluation of quinones was performed using the 3-(4,5 dimethylthiazol-2-yl)-2,5-diphenyltetrazolium bromide (MTT, Sigma, Cream Ridge, NJ, USA) assay as described by Betancur-Galvis et al. 2002 [22]. Briefly, Vero and HeLa cell lines were seeded at 2.0 × 10^3 cells per well of 96-well plates in DMEM supplemented with 10% of inactivated FBS, and were incubated for 24 h at 37 °C, 5% CO2. Then, each diluted molecule was added to the cells and incubated for further 48 h at 37 °C, 5% CO2. Jurkat cell line at 3 × 10^3 cells per well in a 96-well round-bottomed plate and diluted substances in RPMI-1640 medium (Sigma) supplemented with 10% FBS were plated simultaneously. After 48 h of treatment at 37 °C, 5% CO2, the media was carefully removed and 28 µL of MTT solution (4 mg/mL) was added to each well, and the plates were incubated for 2 h at 37 °C, 5% CO2. The DMSO was then added to dissolve the formed formazan crystals and absorbance was determined spectrophotometrically at 570 nm.
The minimal dilution of compound that caused 50% inhibition of the cells (IC50) was calculated by linear regression analysis of the dose-response curves generated from the absorbance data with the statistical GraphPad Prisma 5.0. IC50 values were expressed as the mean ± standard deviation (M ± SD) of two independent experiments done in quadruplicate.

Assay [2] relates to Human Herpesvirus type 2 (HHV-2). The assay is described as follows: End-point titration technique (EPTT), anti-herpetic screening on infected Vero cells. The format is cell-based, Human Herpesvirus 2. The settings on record: for Rf (reduction factor of the viral titer), HHV-2: 10 TCID50, 48 h; for minimal effective concentration: Human alphaherpesvirus 2, 10 TCID50, 48 h, tested 6.25-50 µg/mL, read-out: 10 TCID50: non-toxic concentration that showed viral reduction factor, HHV-2. The protocol:
as §1, §2

In another assay the test system is HHV-2. Put plainly: Plaque reduction assay, simultaneous and post-infection treatment, Vero cells. Type of assay: cell-based, Human Herpesvirus 2. The procedure: (§4) To define the stage of the viral replicative cycle where NQ 4 exerts its action, simultaneous and post-infection treatments against HHV-1 and HHV-2 were performed. […] First, we determined the inhibitory concentration 50% (IC50) for the compound and drug positive controls on infected cells and their effects on non-tumoral Vero cells, to define the concentration of evaluation and to calculate the antiviral selectivity index (SI). Then, the concentration of NQ 4 that reduced the number of viral plaques by 50% (EC50) was determined from the dose-response curves.
(§5) The potential antiviral mechanism of NQ 4 was evaluated by the plaque reduction assay as previously described by us. Vero cell monolayers grown in 24-well plates were infected with 100 PFU/well of each virus. For simultaneous treatment, the compound and the virus were added simultaneously to the cell monolayers and incubated for 1 h at 37 °C (5% CO2). Then, cells were washed with phosphate buffered saline (PBS, pH = 7.0) and CMC at 1% and 0.75% was added for HHV-1 and HHV-2, respectively. In post-infection treatment, virus was added to cell monolayer and incubated for 1 h at 37 °C (5% CO2). After incubation, washing was performed with PBS and molecule previously prepared in CMC 1% and 0.75% for HHV-1 and HHV-2 respectively, was added. In both treatments, NQ 4 was prepared at concentrations from 0.4 µg/mL to 3.1 µg/mL and the cell monolayers allowed to incubate for 72 h. Subsequently, cells were fixed and stained with a solution of 3.5% formaldehyde with 0.2% crystal violet, and the viral plaques were counted. Dextran sulfate (DS) was included as positive control in simultaneous assay and acyclovir (A) was the positive control in after infection treatment.

A further assay deals with HHV-1. Described as above. Type of assay: cell-based, Human Herpesvirus 1. The procedure: as §4, §5
The test system of assay [3] is DENV-2. Put plainly: Plaque reduction assay, simultaneous and post-infection treatment, BHK-21 cells. Type of assay: cell-based, Dengue virus type 2. The note with it: post-infective stages, ribavirin 3.7 µg/mL. The protocol: as §4
Against DENV, the effect of NQ 4 either simultaneously or post-infection was also evaluated by the plaque reduction assay as previously described. Concentrations employed for this assay were from 0.4 µg/mL to 1.6 µg/mL. In this test, BHK-21 cell monolayers grown in 24-well plates were infected with 100 PFU/well of DENV-2 and treatments were performed in the same way to describe for Herpesviruses. Moreover, the monolayers were incubated for 6 days, fixed and stained with a solution of 3.5% formaldehyde with 0.2% crystal violet, and the viral plaques were counted. Heparin (H) was included as a positive control in the simultaneous assay, and ribavirin (R) was the positive control in after infection treatment.

Assay [4] deals with DENV-2. Also on record: method as in PMID 20837762. The settings on record: low concentrations; cited from earlier work.
Setting [5] is: Vero ATCC CCL-81, 48 h, MTT, read-out: IC50 ± SD, Vero.
Where [6] appears, read: simultaneous treatment, PFU, NQ 4 0.4–3.1 µg/mL, DS 5 µg/mL.
Setting [7] is: non-tumoral Vero cells, data not shown.
Setting [8] is: non-tumoral Vero cells, data not shown, read-out: IC50 on Vero cells.
Where [9] appears, read: post-infective stages, acyclovir 1.5 µg/mL.

With `CC1(C)CCCc2cc3c(cc21)C(=O)C(Cl)=C(Cl)C3=O` [AQ 12], the values for the minimal effective concentration in [1] (tested 6.25-50 µg/mL) and in [2] were over 50 µg/mL and 25 µg/mL, respectively. Moreover, the IC50 is 27.5 ± 0.6 µM in the assay on Jurkat, 38.5 ± 1.2 µM in the assay on HeLa and 136 ± 4.4 µM with Vero (setting [5]). Moreover, the “Rf (reduction factor of the viral titer), HHV-2” value in assay [2] is given as 1 × 10^2; in assay [2] (listed as 12), 10^2.

On to `CC(C)=CCCc1ccc2c(c1)C(=O)C=CC2=O` [NQ 1], for which the IC50 in the assay on Jurkat and in the assay with HeLa was over 104 µM in each case.

Turning to “Dextran sulfate [DS, reference compound]”, in [1], the “Rf (reduction factor of the viral titer), HHV-1” value is recorded as 10^2. In addition, in assay [1] (48 h, tested 6.25-50 µg/mL), the “1 TCID50: non-toxic concentration that showed viral reduction factor, HHV-1” value is listed as 0.5 µg/mL. Further, the “Antiviral activity in simultaneous treatment, HHV-2” value with HHV-2 (setting [6]) is “active”. Besides, the “IC50 on Vero cells” value in the assay on Vero (setting [7]) is on record as over 400 µg/mL. Also, the “Antiviral activity in simultaneous treatment, HHV-1” value with HHV-1 (setting [6]) was “active”.

As to `NC(=O)c1ncn([C@@H]2O[C@H](CO)[C@@H](O)[C@H]2O)n1` [ribavirin, reference compound], the IC50 in the assay on Vero (setting [8]) was over 400 µg/mL. The “Antiviral activity in post-infection treatment, DENV-2” value with DENV-2 [3] is “active”.

`Nc1nc2c(ncn2COCCO)c(=O)[nH]1` [A, Acyclovir, reference compound]: the “Rf (reduction factor of the viral titer), HHV-1” value in [1] is reported as 10^4. Also, the minimal effective concentration in assay [1] (tested 6.25-50 µg/mL) and in assay [2] was 1.5 µg/mL each time. Besides, in the assay on HHV-2 (setting [9]), the “Antiviral activity in post-infection treatment, HHV-2” value is “active”. Besides, the IC50 in the assay on Vero (setting [8]) is over 400 µg/mL. Further, the “Antiviral activity in post-infection treatment, HHV-1” value in the assay on HHV-1 (setting [9]) was “active”. Moreover, the “Rf (reduction factor of the viral titer), HHV-2” value in assay [2] was 10^4.

With `Cc1cc(C)c2c3c(oc2c1)C(=O)c1cc(CCCC(C)C)ccc1C3=O` [HetQ 20], the IC50 in the assay with Jurkat is 42.2 ± 0.7 µM; in the assay with HeLa it was over 69.3 µM; with Vero (setting [5]) it was 153 ± 4.5 µM.

For the molecule `COc1cccc2c1C(=O)c1c(O)c3c(c(O)c1C2=O)C[C@@](O)(C(=O)CO)C[C@@H]3O[C@H]1C[C@H](N)[C@H](O)[C@H](C)O1` [Doxorubicin, doxorubicin, reference compound], the “Activity against DENV-2 at very early stages of the viral replication cycle” value in the assay with DENV-2 [4] is “active”. Also, the 50% inhibitory concentration (IC50) with Jurkat worked out at 0.1 ± 0.01 µM; in the assay with HeLa it was 0.9 ± 0.1 µM; in the assay on Vero (setting [5]), 2 ± 0.1 µM.

In the case of `Cc1ccc2[nH]c3c(c2c1)C(=O)c1ccc(CCCC(C)C)cc1C3=O` [HetQ 19], the IC50 in the assay on Jurkat was over 72.4 µM; in the assay on HeLa it was 77 ± 1.9 µM; in the assay on Vero (setting [5]), 212 ± 8.6 µM.

On to `Cc1c2c(nc3ccccc13)C(=O)c1cc(CCCC(C)C)ccc1C2=O` [HetQ 21], for which the IC50 in the assay with Jurkat and in the assay on HeLa was over 69.9 µM in each case.

On to `CC(C)CCCc1ccc2c(c1)C(=O)C(Br)=C(Br)C2=O` [NQ 5], for which the IC50 in the assay on Jurkat was found to be 23.5 ± 1.7 µM; in the assay with HeLa it was 19.7 ± 0.3 µM; in the assay with Vero (setting [5]) it was 15.7 ± 2.7 µM.

For `CCn1c(C)c(C(=O)OC)c2c1C(=O)c1cc3c(cc1C2=O)C(C)(C)CCC3` [HetQ 22], the results for the IC50 in the assay with Jurkat, in the assay with HeLa and in the assay with Vero (setting [5]) were 71.7 ± 1.8 µM, 73 ± 1.6 µM and 183 ± 15.9 µM, respectively.

With heparin [reference compound], the “IC50 on Vero cells” value with Vero (setting [7]) is recorded as over 400 µg/mL.
